Patent US20210244728A1, “Method of treating peripheral neuropathy” (Chemedest Ltd., priority 2012, published 2021)

How the values were obtained:
sciatic-ligated rats = assay: Von Frey test in Bennett model (chronic constrictive injury of the sciatic nerve) of neuropathic pain; assay type: in vivo, Male Sprague Dawley rats
From the text: The study was designed to evaluate the analgesic efficacy of compound XV (CHM-65) in the Bennett model of neuropathic pain.
Male Sprague Dawley rats (100-125 g) from Harlan (Indianapolis, Ind.) were used in the study. Upon receipt, rats were assigned unique identification numbers and were group housed with 3 rats per cage in polycarbonate cages with micro-isolator filter tops. All rats were examined, handled, and weighed prior to initiation of the study to assure adequate health and suitability. During the course of the study, 12/12 light/dark cycles were maintained, with lights on at 7:00 am EST. The room temperature was maintained between 20 and 23° C. with a relative humidity maintained around 50%. Chow and water were provided ad libitum for the duration of the study. […]
This surgery was performed according to Bennett and Xie (1988). […] Each rat was monitored until awake and moving freely around the recovery chamber. […]
Withdrawal from a mechanical stimulus was measured by applying von Frey (VF) filaments of ascending bending force to the plantar surface of the hind paws (ipsilateral and contralateral). […]
Data were analyzed by one-way analysis of variance (ANOVA) followed by Fisher PLSD post-hoc comparisons. […]

[1] = system: spinal nerve-ligated rats; assay: Von Frey test in Chung model (spinal nerve ligation) of neuropathic pain; assay type: in vivo; conditions: for Signs of sedation or toxicity: during pretreatment or testing
From the text: The study was designed to evaluate the analgesic efficacy of test compounds in the rat Chung model of neuropathic pain.
Male Sprague Dawley rats (100-125 g) from Harlan (Indianapolis, Ind.) were used in the study. Upon receipt, rats were assigned unique identification numbers and were group housed with 3 rats per cage in polycarbonate cages with micro-isolator filter tops. All rats were examined, handled, and weighed prior to initiation of the study to assure adequate health and suitability. During the course of the study, 12/12 light/dark cycles were maintained, with lights on at 7:00 am EST. The room temperature was maintained between 20 and 23° C. with a relative humidity maintained around 50%. Chow and water were provided ad libitum for the duration of the study.
Reference compound: Gabapentin (100 mg/kg; TRC, Lot No. 1-SWM-154-1) was dissolved in saline and administered acutely on test day (day 8 or 12) 1 hour prior to testing, at a dose volume of 1 ml/kg, p.o.
Test compounds: CHM-65 (5, 15 and 25 mg/kg, Q.D., Lot n/a) was dissolved in sterile injectable saline and administered subcutaneously on days 1, 3, 5 and 8 with the first administration (day 1) occurring 1 hour post-op. On day 8, compound was administered 1 hour prior to testing. The dose volume was 3 ml/kg.
CHM-36 (20 mg/kg, Q.D., Lot n/a) was dissolved in sterile injectable saline and administered subcutaneously on days 1, 3, 5 and 8 with the first administration (day 1) occurring 1 hour post-op. On day 8, compound was administered 1 hour prior to testing. The dose volume was 5 ml/kg.
Artemin (CHMB-1) (0.5 mg/kg, Q.D., Lot n/a) was administered subcutaneously on days 1, 3, 5, 8, 10 and 12 with the first administration (day 1) occurring 1 hour post-op. On day 12, compound was administered 1 hour prior to testing. The dose volume was 0.5 ml/kg.
Under general anesthesia with continuous inhalation of isoflurane, surgery was performed with aseptic procedures in surgery unit. Sterile ophthalmic ointment was used to lubricate the eyes. Animals were observed continuously for the level of anesthesia, testing for the animal's reflex response to tail or paw pinch and closely monitoring the animal's breathing. A heating pad was used to maintain body temperature at 37° C. while the animals recovered from anesthesia. The skin at the area of the lower lumber and sacral level of the rat was shaved and disinfected with betadine and alcohol. A left longitudinal incision at the level next to the vertebral column was made and the left paraspinal muscles were separated. The transverse process of L6 was removed and nearby connective tissue cleaned to expose L5 and L6 spinal nerves. After the nerves were isolated and clearly visualized, 4-0 silk threads were used to ligate the left L5. The muscles were sutured with 4-0 silk threads and the wound closed by staples. All rats received an analgesic (buprenorphine, 0.05 mg/kg, s.c.) immediately before and 6 hours after surgery. Each rat was monitored until awake and moving freely around the recovery chamber. Animals were then single-housed for the duration of the study. Rats began their chronic-treatment regimen (all test groups except gabapentin) 1 hour post-op on surgery day.
Withdrawal from a mechanical stimulus was measured by applying von Frey (VF) filaments of ascending bending force to the plantar surface of the hind paws (ipsilateral and contralateral). A positive response was defined as withdrawal from the von Frey filament. […]

[2] = system: rats with SNL (spinal nerve ligation); conditions: repeated injection; cited from earlier work
[3] = system: peripheral neuron populations (dorsal root, trigeminal, nodose, superior cervical ganglia) and cultured fetal ventral mesencephalic DA neurons; conditions: cited from earlier work
animals = conditions: systemic administration in animals; cited from earlier work

Molecule | Signs of sedation or toxicity (sciatic-ligated rats; during pretreatment or testing, Bennett model study) | ipsilateral paw withdrawal threshold compared to vehicle (sciatic-ligated rats; gabapentin 100 mg/kg p.o., acute on day 12, 1 hour prior to testing, FIG. 3) | Signs of sedation or toxicity ([1]; CHM-36 study) | Signs of sedation or toxicity ([1]; artemin study) | ipsilateral paw withdrawal threshold compared to vehicle ([1]; gabapentin 100 mg/kg p.o., acute on test day, 1 hour prior to testing, CHM-36 study, FIG. 5) | ipsilateral paw withdrawal threshold compared to vehicle ([1]; gabapentin 100 mg/kg p.o., acute on test day, 1 hour prior to testing, artemin study, FIG. 7) | behavioral responses to light touch and noxious thermal stimuli [2] | behavioral signs of toxicity [2] | ipsilateral paw withdrawal threshold compared to vehicle ([1]; 0.5 mg/kg s.c. on days 1, 3, 5, 8, 10 and 12, tested day 12, 1 hour after administration, FIG. 7) | survival of peripheral neuron populations and cultured fetal ventral mesencephalic DA neurons [3] | restoration of nociceptive and sensorimotor functions (animals)
NCC1(CC(=O)O)CCCCC1 [gabapentin, Gabapentin] | not observed | significantly increased | not observed | not observed | significantly increased | significantly increased |  |  |  |  | 
CHMB-1: GDNF family ligand artemin (ARTN), neurotrophic factor signalling through GFR α 3/RET |  |  |  |  |  |  | dose-dependent normalization | without producing behavioral signs of toxicity | significantly increased | promote the survival | essentially complete and persistent restoration
